From ChEMBL document CHEMBL3507680, “University of Dundee, Gates Library screen for HepG2 cell viability”

Assay: Human HepG2 cell viability assay in 384 well format
Format: toxicity, cell-based
Design: dose 125 nL, time 70.5 hour; concentration not given beside the values
Details: HepG2 cells, read-out: Inhibition

| Compound | cytotoxicity at 70.5 h [%] |
| --- | --- |
| COC1CCCN(C(=O)Nc2nc(C)n(C)n2)C1 (centres undefined) | -8.2 |
| Cn1ncc2c1C(COCC1CC1)CN(Cc1ccoc1)C2 (centres undefined) | -6.88 |
| Cc1cc(C)nc(CCNC(=O)C(c2ccc(F)cc2)N(C)C)n1 (centres undefined) | 30.5 |
| COC(=O)c1ccc(N2CCN(CCS(C)(=O)=O)C(C)C2)cc1 (centres undefined) | -3.48 |
| CN1C[C@@H](c2cccc(F)c2)[C@H]2[C@H]1CCCCCN2C(=O)C1CC1 | 2.38 |
| Cc1cccc(C(=O)Nc2cccc3c2C(=O)NC3)n1 | -5.67 |
| O=C(CCN1CCCCC1c1cc2ccccc2[nH]1)N1CCOCC1 (centres undefined) | 8.08 |
| Cc1nc(C)c2c(n1)CCN(C(=O)C1(C#N)CC1)CC2 | -1.89 |
| CC(C)c1nc(CN(C)C(=O)CNS(=O)(=O)c2cccs2)cs1 | -6.67 |
| Cc1noc(C)c1S(=O)(=O)N1CCc2nc(C3CCNCC3)ncc2C1 | -6.62 |
| CCCNC(=O)c1ccc(S(=O)(=O)NCC2(O)CCCNC2)cc1 (centres undefined) | -5.48 |
| Cc1csc(CNC(=O)NC2CCCc3c2cnn3CCO)n1 (centres undefined) | -9.89 |
| Cc1cc(NC(=O)CN2CCCC(Cn3cncn3)C2)no1 (centres undefined) | -3.46 |
| COc1ccccc1C1CC(=O)Nc2nc(N3CCCCC3)sc21 (centres undefined) | -18.8 |
| CCCC(=O)N1CCC(c2cc[nH]n2)C1 (centres undefined) | 0.0603 |
| O=C(NCC1(N2CCOCC2)CCSC1)Nc1ccccn1 (centres undefined) | -9.14 |
| CC(CO)NS(=O)(=O)c1cccc(C(C)C)c1 (centres undefined) | -9 |
| Cc1csc(CCNC(=O)C2CCOC2)n1 (centres undefined) | -2.45 |
| COCC(=O)NC(Cc1cc(N(C)C)nc(C2CC2)n1)c1ccccc1 (centres undefined) | -2.08 |
| CC(CNC(=O)NCCCc1cc(N)n(-c2ccccc2)n1)N(C)C (centres undefined) | -8.44 |
| Cc1cc(=O)n(CC(=O)Nc2ccc(C(N)=O)cc2)nc1C | -4.34 |
| Cc1nn(CCC(=O)NC2CCCOC2)c(C)c1C (centres undefined) | -1.37 |
| Cn1ncc(NCc2cccc(COC(C)(C)C)c2)c(Cl)c1=O | 7.28 |

| Compound | cytotoxicity at 70.5 h [%] |
| --- | --- |
| CC(C)c1nnc2n1CC(CNC/C=C/c1ccccc1)CC2 (centres undefined) | -7.41 |
| COc1cccc(CN2CCCC2c2ccc[nH]2)c1 (centres undefined) | 0.927 |
| C[C@@H]1C[C@H]2CN(S(=O)(=O)c3ccc(F)cc3)C[C@H]2O1 | -4.41 |
| Cc1ncc2c(n1)CN(Cc1nc(Cc3ccccc3)no1)CC2 | -8.87 |
| Cc1nc(N(C)C)nc2c1COCC21CCN(C(=O)NCC(C)C)C1 (centres undefined) | -7.67 |
| COc1ccc(C(=O)C2CCCN(CCc3ccccc3)C2)c(OC)c1 (centres undefined) | 18.4 |
| Cn1ncc2c1CCCC2NCc1cc(Br)cs1 (centres undefined) | -0.587 |
| N#Cc1cc(F)ccc1NCC1CCS(=O)(=O)CC1 | -1.39 |
| O=C(c1c(F)cc(Br)cc1F)N1CCc2cnccc21 | -5.62 |
| O=S(=O)(NCc1ccccc1)N1CCCN(c2ccncc2)CC1 | 28.7 |
| C[C@@H](O)CNc1c(NCc2ccco2)c(=O)c1=O | -12.9 |
| COc1ccc(CN2CC[C@H](NC(C)=O)[C@@H](O)CC2)c(F)c1 | -5.93 |
| CNC(=O)c1cn[nH]c1C1CCCN1C(=O)c1ccccn1 (centres undefined) | -1.79 |
| CCn1nc2c(cc1=O)CN(Cc1nc(-c3ccccn3)no1)CC2 | -1.12 |
| CC(C)c1n[nH]c(C2CN(Cc3nnc(C4CC4)o3)CCO2)n1 (centres undefined) | 24.8 |
| COC1COC2(CCN(Cc3ccc4c(c3)OCO4)CC2)C1 (centres undefined) | 0.98 |
| OC1CCCOC12CCN(Cc1nnc(-c3cccnc3)o1)CC2 (centres undefined) | 0.216 |
| COc1c(CNC2CCN(c3ncccn3)CC2)c(C)nn1C | -8.59 |
| CCC(=O)N1CCCC(C(=O)N2CCN(c3cnn(C)c(=O)c3)CC2)C1 (centres undefined) | -12.7 |
| CCCN(Cc1ccccc1O)S(=O)(=O)N(C)CC | -6.19 |
| CNC(=O)c1ccc(CN2CCC(N(C)Cc3noc(C)n3)C2)cc1 (centres undefined) | -0.459 |
| CCC(C)N(Cc1sccc1C)C(=O)c1ccc2cccnc2n1 (centres undefined) | -11.7 |
| Cc1ccc(S(=O)(=O)Cc2nsc(N(C)C)n2)c(C)c1 | -6.24 |

| Compound | cytotoxicity at 70.5 h [%] |
| --- | --- |
| CCC(CNS(=O)(=O)c1cccc(C(=O)OC)c1)N1CCCC1 (centres undefined) | -10.7 |
| CCn1ccnc1CN1CCN(c2ncnc3ccsc23)CC1 | -3.44 |
| CC(C)NC(=O)[C@@H]1C[C@H](N)CN1C(=O)C1(c2ccc(Cl)cc2)CCC1 | -9.78 |
| CCOCC(O)CN1CCN(C(=O)c2cnc3n[nH]c(C)c3c2)CC1 (centres undefined) | -2.39 |
| CC(NC(=O)CCCOc1cccc(F)c1)c1ccncc1 (centres undefined) | -4.8 |
| c1ccc(Cc2noc(CN3CCCC(Cn4cncn4)C3)n2)cc1 (centres undefined) | -14.5 |
| Cc1nn(CC(C)C)c(N(C)C)c1CNCc1ccc(CO)c(F)c1 | 1.46 |
| Cc1cc(CN2CCCC2c2c(C)nn(C)c2Cl)no1 (centres undefined) | 4.73 |
| CC(C)(C)NC(=O)Cn1c(=O)n(Cc2ccco2)c2ncccc21 | -3.69 |
| Cc1cc(C(=O)N2CCN(Cc3ccsc3)CC2)c(C)n1C1CC1 | -14.9 |
| CCS(=O)(=O)N1CCC2(CN(c3cccc(F)c3)C(=O)CN2C)C1 (centres undefined) | -8.93 |
| O=C(CSC1=NS(=O)(=O)c2cc(F)ccc2N1)c1ccc(Cl)cc1 | -17.3 |
| NC(=O)CN1CC2(CCC1=O)CCN(Cc1ccc(Cl)c(F)c1)CC2 | 2.58 |
| CCOc1cccc(NC(=O)c2cc[nH]n2)n1 | -3.18 |
| Cc1ccc(C(=O)N2C[C@@H](OCc3cccnc3)[C@H]3OCCC[C@@H]32)o1 | 10.6 |
| COc1ccc(NC(=O)c2cccc(OC)c2OC)cc1 | -3.77 |
| COc1ccc(C)cc1C(=O)N1CCCC(n2nc(C)nc2C)C1 (centres undefined) | -8.26 |
| Cn1ccc(C(=O)Nc2nccn2Cc2ccccc2Cl)cc1=O | -7.59 |
| COc1ccccc1N1CCN(C(=O)c2ccoc2)CC1 | -6.02 |
| CCc1nccn1C1CCCN(C(=O)c2ccnc(N(C)C)c2)C1 (centres undefined) | -7.75 |
| Cc1cc(C)n(CC(=O)N2CCCC(c3cc4cccnc4[nH]3)C2)n1 (centres undefined) | -3.24 |
| Cc1noc(-c2ccnc(N3CCC(CN4CCOCC4)CC3)c2)n1 | 11 |
| O=C(O)c1ccn(-c2cccc(NC(=O)c3ccccc3Cl)c2)n1 | -6.97 |

| Compound | cytotoxicity at 70.5 h [%] |
| --- | --- |
| O=C(CCc1cc2n(n1)CCCN(C(=O)[C@H]1CCCO1)C2)NC1CC1 | 3.28 |
| CCN(C)C(=O)[C@H]1C[C@@](CC(C)C)(C(=O)OC)N(C)[C@H]1c1cccnc1 | -3.05 |
| CC(C)CN1CCCn2nc(CNC(=O)CN3CCOC3=O)cc2C1 | -7.41 |
| Cc1cccc(C)c1NC(=O)CNC(C)Cc1ccsc1 (centres undefined) | 32.9 |
| O=C(c1cc(-c2ccccc2)nc2onc(C3CC3)c12)N1CC[C@H](O)C1 | -11.3 |
| CCN1C[C@@H]2[C@@H](OC)CCN(C(=O)Cc3ccsc3)[C@@H]2C1 | -5.4 |
| COCc1nn(CC2CC2)c2c1CN(C(=O)c1ccno1)CC2 | -3.21 |
| Cc1ncc2c(n1)CN(CC(=O)Nc1nccs1)CC2 | -10.4 |
| Cn1c(=O)c2cc(C(=O)NCCOc3ccccc3)ccc2n(C)c1=O | 24.3 |
| O=C1NCCN1C1CCCN(Cc2coc(-c3cccs3)n2)C1 (centres undefined) | -6.11 |
| Cc1nc(COC[C@H]2CC[C@H]3NCC[C@H]3O2)cs1 | -6.2 |
| Cn1nc(C(=O)NCc2ccc(OC3CCCCC3)nc2)ccc1=O | 21.9 |
| COc1cccc2c1ccn2CCNC(C)=O | -16.2 |
| CO[C@H]1CNC[C@@H]1NC(=O)c1cc(C)nc2c(C)cc(C)cc12 | 2.49 |
| COC(=O)NCC(=O)N1CCc2cc(Cl)cc(Cl)c2C1 | -1.77 |
| CN(CC1=CCCN(Cc2cccc(C#N)c2)C1)C(=O)c1ccco1 | -12.2 |
| CCNC(=O)N1CCCCC1CCNS(C)(=O)=O (centres undefined) | -10.5 |
| COc1ccc(C)cc1C(C)NC(=O)CCn1cncn1 (centres undefined) | -5.61 |
| O=C(c1noc2c1CCCC2)N1CCCC(c2nccs2)C1 (centres undefined) | -3.76 |
| CCOCCN1CCCC(c2cc(C(N)=O)[nH]n2)C1 (centres undefined) | -13.1 |
| Cn1nnc2c1CCN(Cc1ccncc1)C2COCc1ccccc1 (centres undefined) | -6.13 |
| CSCC[C@H](N)c1nnc(SCC(=O)Nc2ccc(Br)cc2)o1 | -18.7 |
| CCn1nc(C)c2nnn(CC(=O)Nc3cccc(Cl)c3)c(=O)c21 | -5.39 |

| Compound | cytotoxicity at 70.5 h [%] |
| --- | --- |
| Cc1cnc(N2CCN3C[C@H](OCc4cccc(C)n4)C[C@H]3C2)nc1 | 0.481 |
| COc1ccc(C(CO)NC(=O)Nc2cccc(C#N)c2)cc1 (centres undefined) | -8.65 |
| CC(=O)Nc1nc(C(=O)Nc2ccc(F)cc2)cs1 | -4.84 |
| Cc1nc(N(C)C)nc(C)c1NS(=O)(=O)c1ccc(F)cc1F | -2.45 |
| Cc1nccc(C2CN(C(=O)c3cncnc3)C2)n1 | -13.8 |
| CCOCc1cccc(S(=O)(=O)Nc2ncc(C)s2)c1 | 3.25 |
| COc1ncccc1-c1cc(C(=O)NC2CC2)ccn1 | -8.1 |
| Cc1c(C(=O)N2CCN(c3ncccn3)CC2)n(C)c2ccc(Cl)cc12 | -7.85 |
| Cc1nn(-c2ccccc2)nc1C(=O)N1CCCC1c1cnn(C)c1 (centres undefined) | -18.4 |
| CN(C)C1CCN(C(=O)NCc2ccccc2Cn2cncn2)CC1 | -11.6 |
| Cc1nn(C)cc1C1=NS(=O)(=O)N(C)C(C(=O)Nc2ccc(Br)cc2)=C1 | 0.0552 |
| Cc1cc2n(n1)CC(CNCc1cc(C)on1)CN2 (centres undefined) | -9.53 |
| Cn1nc(CNC(=O)c2ccc3c(c2)OCO3)c2c1CCOC2 | 5.45 |
| COCCN(CCOC)c1ncccc1I | -4.47 |
| CC(C)c1cc(N2CCC(NS(C)(=O)=O)C2)nc(C(C)C)n1 (centres undefined) | -10.9 |
| Clc1cccc(-n2cnnn2)c1N1CCCCC1 | 29.1 |
| O=c1ccc2c(n1Cc1cccnc1)CCN(Cc1ccoc1)CC2 | 4.28 |
| Cc1cc(C)n(-c2cncc(N3CCN(C(=O)C(C)C)CC3)n2)n1 | -4.92 |
| OCC(CO)Nc1ccc2c(Cl)ccc(Cl)c2n1 | -1 |
| Cc1cc(C(=O)N2CCCC3(CNC(=O)O3)C2)c2c(C)nn(C)c2n1 (centres undefined) | -5.33 |
| Cc1nonc1C1CCCN1Cc1ccc(C(=O)Nc2nccs2)cc1 (centres undefined) | 9.65 |
| NC(=O)C1CCN(C(=O)c2ccc(Cn3cc(Br)cn3)cc2)CC1 | 16 |
